{"source": "patent US20150050371A1", "about": "“Extract Formulations of Rhodamnia Cinerea And Uses Thereof” (BIOTROPICS MALAYSIA BERHAD, priority 2012, published 2015)", "tested_on": "normal male Wistar rats", "experiment": "Acute Starch Tolerance Test (STT), glycemia after oral wheat starch", "type": "in vivo, rat", "conditions": "5 mg/kg oral", "method": "An acute Starch Tolerance Test (STT) was performed by the administration by oral gavage of a 7.5% purified wheat starch solution at 1.5 g/kg of body weight to normal male Wistar rats. The effect of a concomitantly administered hot water extract formulation from Rhodamnia cinerea leaves (BTP-00167-14; ref. example 1.2) on the glycemic index was measured at different doses orally administered (50 and 200 mg/kg of body weight). The extract formulation BTP-00167-14 was administered by oral route concomitantly with wheat starch solutions. Glycemia was measured before and 15, 30, 60, 90, and 120 min after mixture administration. The positive control group received acarbose at 5 mg/kg of body weight together with the starch. The actual volume administered to each rat was calculated and adjusted based on the most recent body weight of each animal. STT onset was between 12:00 p.m. (noon) and 1:00 p.m. on animals fasted overnight. Blood samples (one drop) were collected via the tail vein for glucose determination using a hand-held glucometer before and 15, 30, 60, 90, and 120 min after starch administration. Seven-week old rats weighing around 135 g were used for the experiment. One day before the test, rats were randomly assigned to the different experimental groups. Delta glycemia values were calculated by subtraction of the pre-STT glycemia values (Time 0). Values represent average (i.e. mean) values.", "note": "Marks after values point to notes of the source that are not given here.", "data": [{"smiles": "C[C@H]1O[C@H](O[C@H]2[C@H](O)[C@@H](O)[C@@H](O[C@H]3[C@H](O)[C@@H](O)C(O)O[C@@H]3CO)O[C@@H]2CO)[C@H](O)[C@@H](O)[C@@H]1N[C@H]1C=C(CO)[C@@H](O)[C@H](O)[C@H]1O", "note": "(stereo partly drawn) [Acrabose, acarbose]", "values": [{"measurement": "Glycemia 15 min", "setting": "15 min after starch", "value": "72.4** mg/dL"}, {"measurement": "Glycemia 30 min", "setting": "30 min after starch", "value": "83.7** mg/dL"}, {"measurement": "Glycemia 60 min", "setting": "60 min after starch", "value": "71.7** mg/dL"}, {"measurement": "Glycemia 90 min", "setting": "90 min after starch", "value": "66.0** mg/dL"}, {"measurement": "Glycemia 120 min", "setting": "120 min after starch", "value": "61.9** mg/dL"}, {"measurement": "Glycemia 0 min", "setting": "before administration", "value": 55.0, "unit": "mg/dL"}]}]}
